In paper PMC6010098, “Synthesis, antitumour and antioxidant activities of novel α,β-unsaturated ketones and related heterocyclic analogues: EGFR inhibition and molecular modelling study” (Journal of Enzyme Inhibition and Medicinal Chemistry, 2018):
Read-outs that look alike come from different tables or passages of the source.

Legend:
HepG2 cells = test: MTT antitumour assay, HepG2; assay type: cell-based; conditions: human hepato-cellular carcinoma cell line, mean ± SD, n = 3
Experimental: (§1) The evaluation of the antitumour activity was performed using tetrazolium salt MTT (3-(4,5-dimethyl-2-thiazolyl)-2,5-diphenyl-2H-tetrazolium bromide) assay as reported[62]^,[63].
(§2) The designed compounds were evaluated for their in vitro antitumour effects via the standard 3-(4,5-dimethylthiazol-2-yl)-2,5-diphenyltetrazolium bromide (MTT) method against a panel of four human tumour cell lines; namely, hepatocellular carcinoma cell line (HepG2), breast cancer cell line (MCF-7), human cervical cancer cell line (HeLa), and prostate cancer cell line (PC-3)[62]^,[63]^,[72]. The antitumour activities of the designed compounds 4–12, along with that of the reference drugs 5-FU and afatinib are shown in Table 1.

MCF-7 cells = test: MTT antitumour assay, MCF-7; assay type: cell-based; conditions: MCF7, human breast adenocarcinoma cell line, mean ± SD, n = 3
Experimental: as §1, §2

HeLa cells = test: MTT antitumour assay, HeLa; assay type: cell-based; conditions: human cervical epithelioid carcinoma cell line, mean ± SD, n = 3
Experimental: as §1
The designed compounds were evaluated for their in vitro antitumour effects via the standard 3-(4,5-dimethylthiazol-2-yl)-2,5-diphenyltetrazolium bromide (MTT) method against a panel of four human tumour cell lines; namely, hepatocellular carcinoma cell line (HepG2), breast cancer cell line (MCF-7), human cervical cancer cell line (HeLa), and prostate cancer cell line (PC-3)[62]^,[63]^,[72].

PC-3 cells = test: MTT antitumour assay, PC-3; assay type: cell-based; conditions: PC-3; MTT; human prostate cancer cell line; mean ± SD, n = 3
Experimental: as §1, §2

[1] = ABTS radical cation scavenging (antioxidant) assay; conditions: 20 µl of 1 mg/ml test sample (L-ascorbic acid 20 µl, 2 mM)
Experimental: The absorbance (Acontrol) of a green-blue solution (ABTS^+ radical solution) resulted from a mixture of ABTS and manganese dioxide (MnO2) and was recorded at λmax 734 nm, according to the reported procedure[64]^,[65]. The absorbance (Atest) was measured upon the addition of 20 µl of 1 mg/ml solution of the test sample in spectroscopic grade methanol/phosphate buffer (1:1 v/v) to the ABTS solution. The decrease in absorbance is expressed as % inhibition, which can be calculated from the following equation: % inhibition = Acontrol-Atest/Acontrol×100.
L-Ascorbic acid 20 µl (2 mM) solution was used as standard antioxidant (positive control). A blank sample was run using only methanol/phosphate buffer (1:1), while the negative control was run with ABTS and the methanol/phosphate buffer.
The assay is based on measuring the ability of the tested compounds to scavenge the long-life radical cation of ABTS[22]^,[43]^,[64]^,[65].

[2] = system: HepG2, MCF-7, HeLa, and PC-3 cancer cell lines; test: MTT antitumour assay, range over the four cell lines; assay type: cell-based, human; conditions: range over HepG2, MCF-7, HeLa, PC-3 (and over the compounds named), read-out: IC50 range against the tested cell lines
Experimental: as §1, §2

EGFR kinase = EGFR kinase (Homo sapiens, UniProt P00533); test: ELISA-based EGFR kinase inhibition assay; conditions: for inhibition at 0.15 µM: read-out: % Inhibition EGFR, 0.15 μM; for inhibition at 0.31 µM: read-out: % Inhibition EGFR, 0.31 μM; for inhibition at 0.625 µM: read-out: % Inhibition EGFR, 0.625 μM; for inhibition at 1.25 µM: read-out: % Inhibition EGFR, 1.25 μM; for inhibition at 2.5 µM: read-out: % Inhibition EGFR, 2.5 μM; for inhibition at 5 µM: read-out: % Inhibition EGFR, 5.0 μM; for inhibition at 10 µM: read-out: % Inhibition EGFR, 10.0 μM; for Conc. (Average), ELISA read-out: duplicate wells, standards in ng/ml, cont 134.9
Chain of EGFR kinase (P00533 25-1210): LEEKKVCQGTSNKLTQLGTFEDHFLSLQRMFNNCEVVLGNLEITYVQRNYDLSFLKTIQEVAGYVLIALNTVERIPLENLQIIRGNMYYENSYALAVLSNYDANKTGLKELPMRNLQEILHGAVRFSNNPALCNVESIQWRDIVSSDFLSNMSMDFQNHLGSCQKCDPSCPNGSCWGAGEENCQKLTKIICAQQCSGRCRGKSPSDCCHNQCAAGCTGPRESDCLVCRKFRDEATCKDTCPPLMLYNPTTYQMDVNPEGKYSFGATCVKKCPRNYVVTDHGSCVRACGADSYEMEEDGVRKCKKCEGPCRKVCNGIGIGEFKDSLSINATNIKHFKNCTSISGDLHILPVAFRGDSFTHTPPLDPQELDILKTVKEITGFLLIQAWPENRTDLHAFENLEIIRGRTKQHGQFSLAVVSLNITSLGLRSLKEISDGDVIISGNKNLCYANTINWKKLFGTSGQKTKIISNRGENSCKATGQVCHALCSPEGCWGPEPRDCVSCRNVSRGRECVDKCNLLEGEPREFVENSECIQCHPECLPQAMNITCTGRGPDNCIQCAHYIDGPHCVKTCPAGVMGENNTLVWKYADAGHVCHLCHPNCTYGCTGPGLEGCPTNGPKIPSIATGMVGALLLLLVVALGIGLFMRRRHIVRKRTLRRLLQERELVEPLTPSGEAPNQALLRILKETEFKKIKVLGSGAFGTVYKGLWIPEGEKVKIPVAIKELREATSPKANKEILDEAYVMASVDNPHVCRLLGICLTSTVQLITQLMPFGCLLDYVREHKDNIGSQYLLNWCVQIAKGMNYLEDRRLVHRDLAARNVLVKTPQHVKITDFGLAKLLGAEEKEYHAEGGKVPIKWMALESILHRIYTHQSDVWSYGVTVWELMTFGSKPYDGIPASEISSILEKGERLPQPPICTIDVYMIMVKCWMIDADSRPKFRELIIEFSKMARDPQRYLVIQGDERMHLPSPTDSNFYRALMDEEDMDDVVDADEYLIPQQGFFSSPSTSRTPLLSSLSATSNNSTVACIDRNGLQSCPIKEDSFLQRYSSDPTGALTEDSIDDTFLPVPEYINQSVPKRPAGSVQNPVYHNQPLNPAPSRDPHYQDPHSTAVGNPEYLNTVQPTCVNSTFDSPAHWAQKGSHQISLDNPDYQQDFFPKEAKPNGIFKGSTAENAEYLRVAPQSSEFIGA

Cc1ccc(C2=NN(c3ccccc3)C(c3ccc(OC4CCCC4)cc3)C2)cc1 (centres unmarked) [8b, 5-(4-(Cyclopentyloxy)phenyl)-1-phenyl-3-(4-methylphenyl)-4,5-dihydro-1H-pyrazole]
IC50 (HepG2 cells): 7.2 ± 0.24 µM
IC50 (MCF-7 cells): 5.6 ± 0.36 µM
IC50 (HeLa cells): 5.5 ± 0.45 µM
IC50 (PC-3 cells): 7.8 ± 0.56 µM
%Inhibition of the ABTS radical cation [1]: 88.5%
IC50 ([2]; Homo sapiens): 5.5 to 18.1 µM
IC50 [2]: 5.5 to 7.8 µM
IC50 (EGFR kinase): 2160 nM
% Inhibition EGFR (EGFR kinase; 0.15 μM): 6.96%
% Inhibition EGFR (EGFR kinase; 0.31 μM): 26.25%
% Inhibition EGFR (EGFR kinase; 0.625 μM): 43.85%
% Inhibition EGFR (EGFR kinase; 1.25 μM): 47.28%
% Inhibition EGFR (EGFR kinase; 2.5 μM): 50.51%
% Inhibition EGFR (EGFR kinase; 5.0 μM): 60.72%
% Inhibition EGFR (EGFR kinase; 10.0 μM): 64.88%
inhibition at 0.15 µM (EGFR kinase): 6.97%
inhibition at 0.31 µM (EGFR kinase): 26.3%
inhibition at 0.625 µM (EGFR kinase): 43.9%
inhibition at 1.25 µM (EGFR kinase): 47.3%
inhibition at 2.5 µM (EGFR kinase): 50.5%
inhibition at 5 µM (EGFR kinase): 60.7%
inhibition at 10 µM (EGFR kinase): 64.9%
Conc. (Average), ELISA read-out (EGFR kinase; sample at 0.15uM): 125.5
Conc. (Average), ELISA read-out (EGFR kinase; sample at 0.31uM): 99.48
Conc. (Average), ELISA read-out (EGFR kinase; sample at 0.62uM): 75.74
Conc. (Average), ELISA read-out (EGFR kinase; sample at 1.25uM): 71.11
Conc. (Average), ELISA read-out (EGFR kinase; sample at 2.5uM): 66.76
Conc. (Average), ELISA read-out (EGFR kinase; sample at 5uM): 52.98
Conc. (Average), ELISA read-out (EGFR kinase; sample at 10uM): 47.37

Cc1ccc(-c2cc(-c3ccc(OC4CCCC4)cc3)c(C#N)c(=O)[nH]2)cc1 [compound 10, 4-(4-(cyclopentyloxy)phenyl)-2-oxo-6-(4-methylphenyl)-1,2-dihydropyridine-3-carbonitrile]
IC50 (HepG2 cells): 80.9 ± 5.34 µM
IC50 (MCF-7 cells): 70.9 ± 4.98 µM
IC50 (HeLa cells): 51.2 ± 3.82 µM
IC50 (PC-3 cells): 41.9 ± 2.87 µM
melting point: 278 to 280 °C

Cc1ccc(-c2cc(-c3ccc(OC4CCCC4)cc3)c(C#N)c(N)n2)cc1 [compound 11, 2-amino-4-(4-(cyclopentyloxy)phenyl)-6-(4-methylphenyl)nicotinonitrile]
IC50 (HepG2 cells): 92.9 ± 5.82 µM
IC50 (MCF-7 cells): 97.3 ± 5.51 µM
IC50 (HeLa cells): 62.4 ± 3.8 µM
IC50 (PC-3 cells): 87.7 ± 5.41 µM
melting point: 272 to 273 °C

CCOC(=O)C1=C(C)OC(N)=C(C#N)C1c1ccc(OC2CCCC2)cc1 (centres unmarked) [compound 7, ethyl 6-amino-5-cyano-4-(4-(cyclopentyloxy)phenyl)-2-methyl-4H-pyran-3-carboxylate]
IC50 (HepG2 cells): 8 ± 0.38 µM
IC50 (MCF-7 cells): 7.5 ± 0.54 µM
IC50 (HeLa cells): 10.3 ± 1.13 µM
IC50 (PC-3 cells): 13.3 ± 1.26 µM
%Inhibition of the ABTS radical cation [1]: 75.8%
IC50 ([2]; Homo sapiens): 5.5 to 18.1 µM
IC50 (EGFR kinase): 1600 nM
% Inhibition EGFR (EGFR kinase; 0.15 μM): 8.22%
% Inhibition EGFR (EGFR kinase; 0.31 μM): 31.78%
% Inhibition EGFR (EGFR kinase; 0.625 μM): 43.27%
% Inhibition EGFR (EGFR kinase; 1.25 μM): 49.65%
% Inhibition EGFR (EGFR kinase; 2.5 μM): 52.86%
% Inhibition EGFR (EGFR kinase; 5.0 μM): 65.98%
% Inhibition EGFR (EGFR kinase; 10.0 μM): 72.78%
inhibition at 0.15 µM (EGFR kinase): 8.23%
inhibition at 0.31 µM (EGFR kinase): 31.8%
inhibition at 0.625 µM (EGFR kinase): 43.3%
inhibition at 1.25 µM (EGFR kinase): 49.7%
inhibition at 2.5 µM (EGFR kinase): 52.9%
inhibition at 5 µM (EGFR kinase): 66%
inhibition at 10 µM (EGFR kinase): 72.8%
Conc. (Average), ELISA read-out (EGFR kinase; sample at 0.15uM): 123.8
Conc. (Average), ELISA read-out (EGFR kinase; sample at 0.31uM): 92.02
Conc. (Average), ELISA read-out (EGFR kinase; sample at 0.62uM): 76.52
Conc. (Average), ELISA read-out (EGFR kinase; sample at 1.25uM): 67.92
Conc. (Average), ELISA read-out (EGFR kinase; sample at 2.5uM): 63.59
Conc. (Average), ELISA read-out (EGFR kinase; sample at 5uM): 45.89
Conc. (Average), ELISA read-out (EGFR kinase; sample at 10uM): 36.71

CN1CCC(=O)C(=Cc2ccc(OC3CCCC3)cc2)C1 [6a, 3-(4-(Cyclopentyloxy)benzylidene)-1-methylpiperidin-4-one]
IC50 (HepG2 cells): 15.9 ± 1.02 µM
IC50 (MCF-7 cells): 18.1 ± 1.58 µM
IC50 (HeLa cells): 9.4 ± 0.98 µM
IC50 (PC-3 cells): 10.5 ± 0.97 µM
%Inhibition of the ABTS radical cation [1]: 54.3%
IC50 ([2]; Homo sapiens): 5.5 to 18.1 µM
IC50 (EGFR kinase): 4660 nM
% Inhibition EGFR (EGFR kinase; 0.15 μM): 6.67%
% Inhibition EGFR (EGFR kinase; 0.31 μM): 18.16%
% Inhibition EGFR (EGFR kinase; 0.625 μM): 26.84%
% Inhibition EGFR (EGFR kinase; 1.25 μM): 34.55%
% Inhibition EGFR (EGFR kinase; 2.5 μM): 44.35%
% Inhibition EGFR (EGFR kinase; 5.0 μM): 50.34%
% Inhibition EGFR (EGFR kinase; 10.0 μM): 57.65%
inhibition at 0.15 µM (EGFR kinase): 6.67%
inhibition at 0.31 µM (EGFR kinase): 18.2%
inhibition at 0.625 µM (EGFR kinase): 26.8%
inhibition at 1.25 µM (EGFR kinase): 34.6%
inhibition at 2.5 µM (EGFR kinase): 44.4%
inhibition at 5 µM (EGFR kinase): 50.3%
inhibition at 10 µM (EGFR kinase): 57.7%
Conc. (Average), ELISA read-out (EGFR kinase; sample at 0.15uM): 125.9
Conc. (Average), ELISA read-out (EGFR kinase; sample at 0.31uM): 110.4
Conc. (Average), ELISA read-out (EGFR kinase; sample at 0.62uM): 98.68
Conc. (Average), ELISA read-out (EGFR kinase; sample at 1.25uM): 88.29
Conc. (Average), ELISA read-out (EGFR kinase; sample at 2.5uM): 75.07
Conc. (Average), ELISA read-out (EGFR kinase; sample at 5uM): 66.98
Conc. (Average), ELISA read-out (EGFR kinase; sample at 10uM): 57.13

O=C(O)c1cc(C=Cc2ccc(OC3CCCC3)cc2)nc2ccc(Br)cc12 [12a, 6-Bromo-2-(4-(cyclopentyloxy)styryl)quinoline-4-carboxylicacid]
IC50 (HepG2 cells): 85.4 ± 5.31 µM
IC50 (MCF-7 cells): 87.1 ± 5.24 µM
IC50 (HeLa cells): 89.4 ± 4.89 µM
IC50 (PC-3 cells): > 100 µM
melting point: > 300 °C

CCN1CCC(=O)C(=Cc2ccc(OC3CCCC3)cc2)C1 [6b, 3-(4-(Cyclopentyloxy)benzylidene)-1-ethylpiperidin-4-one]
IC50 (HepG2 cells): 13 ± 0.87 µM
IC50 (MCF-7 cells): 13.7 ± 1.35 µM
IC50 (HeLa cells): 6.7 ± 0.67 µM
IC50 (PC-3 cells): 9.1 ± 0.88 µM
%Inhibition of the ABTS radical cation [1]: 55.1%
IC50 ([2]; Homo sapiens): 5.5 to 18.1 µM
IC50 (EGFR kinase): 560 nM
% Inhibition EGFR (EGFR kinase; 0.15 μM): 26.52%
% Inhibition EGFR (EGFR kinase; 0.31 μM): 48.95%
% Inhibition EGFR (EGFR kinase; 0.625 μM): 55.33%
% Inhibition EGFR (EGFR kinase; 1.25 μM): 61.23%
% Inhibition EGFR (EGFR kinase; 2.5 μM): 64.44%
% Inhibition EGFR (EGFR kinase; 5.0 μM): 76.71%
% Inhibition EGFR (EGFR kinase; 10.0 μM): 83.66%
inhibition at 0.15 µM (EGFR kinase): 26.5%
inhibition at 0.31 µM (EGFR kinase): 49%
inhibition at 0.625 µM (EGFR kinase): 55.3%
inhibition at 1.25 µM (EGFR kinase): 61.2%
inhibition at 2.5 µM (EGFR kinase): 64.4%
inhibition at 5 µM (EGFR kinase): 76.7%
inhibition at 10 µM (EGFR kinase): 83.7%
Conc. (Average), ELISA read-out (EGFR kinase; sample at 0.15uM): 99.12
Conc. (Average), ELISA read-out (EGFR kinase; sample at 0.31uM): 68.86
Conc. (Average), ELISA read-out (EGFR kinase; sample at 0.62uM): 60.25
Conc. (Average), ELISA read-out (EGFR kinase; sample at 1.25uM): 52.29
Conc. (Average), ELISA read-out (EGFR kinase; sample at 2.5uM): 47.96
Conc. (Average), ELISA read-out (EGFR kinase; sample at 5uM): 31.41
Conc. (Average), ELISA read-out (EGFR kinase; sample at 10uM): 22.04
